Measurements reported in the supplement of paper PMC10307832.

Experiments:
Test in all cases: relative viability (nuclei count vs DMSO), 5 days (fraction); higher = more cells survive
CUDC-101 + Luminespib = compound: C#Cc1cccc(Nc2ncnc3cc(OC)c(OCCCCCCC(=O)NO)cc23)c1 [CUDC-101] + CCNC(=O)c1noc(-c2cc(C(C)C)c(O)cc2O)c1-c1ccc(CN2CCOCC2)cc1 [Luminespib] (partner 0.01 µM)
Procedure, shortened: (§1)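 Lung cancer cell lines, seeded in 1536-well plates, were treated the following day by pin tool with a single drug or with five library-drug doses (not always all listed) in √10 steps on top of a fixed anchor-drug dose. Cells were fixed and nuclei stained in one step after 5 days, and nuclei were counted. Relative viability is the nuclei count for treated wells divided by that for vehicle wells, reported as medians of duplicate plates.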

NVP-TAE684 + Alpelisib = compound: COc1cc(N2CCC(N3CCN(C)CC3)CC2)ccc1Nc1ncc(Cl)c(Nc2ccccc2S(=O)(=O)C(C)C)n1 [NVP-TAE684] + Cc1nc(NC(=O)N2CCC[C@H]2C(N)=O)sc1-c1ccnc(C(C)(C)C(F)(F)F)c1 [Alpelisib] (partner 2 µM)
Procedure, shortened: as §1

Vandetanib + Navitoclax = compound: COc1cc2/c(=N/c3ccc(Br)cc3F)nc[nH]c2cc1OCC1CCN(C)CC1 [Vandetanib] + CC1(C)CCC(c2ccc(Cl)cc2)=C(CN2CCN(c3ccc(C(=O)NS(=O)(=O)c4ccc(N[C@H](CCN5CCOCC5)CSc5ccccc5)c(S(=O)(=O)C(F)(F)F)c4)cc3)CC2)C1 [Navitoclax] (partner 0.5 µM)
Procedure, shortened: as §1

Vandetanib + Crizotinib = compound: COc1cc2/c(=N/c3ccc(Br)cc3F)nc[nH]c2cc1OCC1CCN(C)CC1 [Vandetanib] + C[C@@H](Oc1cc(-c2cnn(C3CCNCC3)c2)cnc1N)c1c(Cl)ccc(F)c1Cl [Crizotinib] (partner 1 µM)
Procedure, shortened: as §1

Cell Line | relative viability (CUDC-101 + Luminespib; first compound 0.01 µM) | relative viability (CUDC-101 + Luminespib; first compound 0.03162 µM) | relative viability (CUDC-101 + Luminespib; first compound 0.1 µM) | relative viability (CUDC-101 + Luminespib; first compound 0.3162 µM) | relative viability (CUDC-101 + Luminespib; first compound 1 µM) | relative viability (NVP-TAE684 + Alpelisib; first compound 0.2 µM) | relative viability (NVP-TAE684 + Alpelisib; first compound 0.6325 µM) | relative viability (NVP-TAE684 + Alpelisib; first compound 2 µM) | relative viability (Vandetanib + Navitoclax; first compound 0.02 µM) | relative viability (Vandetanib + Navitoclax; first compound 0.06325 µM) | relative viability (Vandetanib + Navitoclax; first compound 0.2 µM) | relative viability (Vandetanib + Navitoclax; first compound 0.6325 µM) | relative viability (Vandetanib + Navitoclax; first compound 2 µM) | relative viability (Vandetanib + Crizotinib; first compound 0.02 µM) | relative viability (Vandetanib + Crizotinib; first compound 0.06325 µM) | relative viability (Vandetanib + Crizotinib; first compound 0.2 µM) | relative viability (Vandetanib + Crizotinib; first compound 0.6325 µM) | relative viability (Vandetanib + Crizotinib; first compound 2 µM)
SK-LU-1 | 0.188 | 0.203 | 0.213 | 0.206 | 0.216 | 1.1 | 0.863 | 0.4 | 0.954 | 0.571 | 0.794 | 0.953 | 0.789 | 1.06 | 0.667 | 0.862 | 0.909 | 0.732
LCLC-97TM1 | 0.849 | 0.857 | 0.771 | 0.765 | 0.502 | 0.194 | 0.233 | 0.127 | 0.399 | 0.556 | 0.345 | 0.403 | 0.411 | 0.32 | 0.342 | 0.232 | 0.459 | 0.441
NCI-H1915 | 0.908 | 0.787 | 0.774 | 0.788 | 0.551 | 1.03 | 1.13 | 0.963 | 0.769 | 0.781 | 0.772 | 0.794 | 0.772 | 0.842 | 0.889 | 0.933 | 0.857 | 0.892
NCI-H358 | 0.263 | 0.407 | 0.225 | 0.659 | 0.448 | 0.751 | 0.478 | 0.203 |  |  |  |  |  | 0.659 | 0.636 | 0.137 | 0.397 | 0.321
LK-2 | 0.248 | 0.196 | 0.19 | 0.179 | 0.178 | 0.846 | 1.07 | 0.574 | 0.761 | 0.759 | 0.913 | 0.936 | 0.721 | 0.217 | 0.222 | 0.225 | 0.219 | 0.233
EPLC-272H | 0.141 | 0.554 | 0.598 | 0.269 | 0.257 | 0.799 |  | 0.9 | 1.06 | 1.03 | 1.14 | 1 | 1.09 | 1.01 | 0.732 | 0.961 | 0.845 | 0.917
A-427 | 0.919 | 0.92 | 0.864 | 0.75 | 0.55 | 1.12 |  | 0.899 | 0.931 | 0.952 | 0.992 | 0.935 | 0.874 | 0.895 | 0.88 | 0.966 | 0.874 | 0.879
ABC-1 | 0.519 | 0.368 | 0.721 | 0.586 | 0.258 | 1.07 |  | 0.537 |  |  |  |  |  | 1.13 | 1.05 | 1 | 1.34 | 0.728
NCI-H1793 | 0.17 | 0.174 | 0.174 | 0.201 | 0.143 | 0.78 | 0.637 | 0.436 | 0.57 | 0.338 | 0.488 | 0.319 | 0.389 |  |  |  |  | 
NCI-H1563 | 0.447 | 0.526 | 0.506 | 0.531 | 0.495 | 0.802 | 0.828 | 0.903 |  |  |  |  |  | 0.887 | 0.835 | 0.794 | 0.852 | 0.858
NCI-H661 | 0.985 | 0.975 | 0.876 | 0.835 | 0.674 | 0.808 |  | 0.596 |  |  |  |  |  | 0.969 |  | 0.99 | 1.06 | 1.03
NCI-H1650 | 0.25 | 0.221 | 0.189 | 0.166 | 0.193 |  |  |  | 1.15 | 1.02 |  | 1.1 | 1.13 | 0.943 | 0.806 |  | 0.736 | 0.581
NCI-H1395 | 0.623 | 0.733 | 0.906 | 0.802 | 0.663 | 1.2 | 1.19 | 0.739 | 1.11 | 1.06 | 1.04 | 1.25 | 1.29 |  |  |  |  | 
LCLC-103H | 0.975 | 0.931 | 0.943 | 0.92 | 0.754 | 0.99 | 0.986 | 0.995 |  |  |  |  |  | 1.03 | 1.01 | 1.12 | 1.05 | 1
NCI-H1623 | 0.469 | 0.46 | 0.445 | 0.632 | 0.392 |  |  |  |  |  |  |  |  |  |  |  |  | 
NCI-H2342 | 0.764 | 0.644 | 0.829 | 0.737 | 0.692 |  |  |  |  |  |  |  |  |  |  |  |  | 
HCC-78 |  |  |  |  |  | 0.319 | 0.198 | 0.282 | 0.732 | 0.649 | 0.828 | 0.887 | 0.573 | 0.318 | 0.352 | 0.328 | 0.331 | 0.257
EBC-1 |  |  |  |  |  | 0.772 | 0.824 | 0.559 | 0.36 | 0.39 | 0.449 | 0.366 | 0.38 | 0.19 | 0.177 | 0.195 | 0.194 | 0.152
ChaGo-K-1 | 0.74 | 0.522 | 0.625 | 0.709 | 0.609 |  |  |  | 0.939 | 0.998 | 0.942 | 1.24 | 0.489 | 1.1 | 1.19 | 1.14 | 1.13 | 1.16
HCC-366 |  |  |  |  |  | 0.758 | 0.342 | 0.0918 | 1.09 | 1 | 1.06 | 1.06 | 1.05 | 0.617 | 0.569 | 0.608 | 0.609 | 0.518
NCI-H650 | 0.959 | 0.688 | 0.912 | 0.957 | 0.619 | 1.06 | 0.961 | 0.571 |  |  |  |  |  | 0.709 | 0.703 | 0.758 | 0.605 | 0.724
NCI-H1299 |  |  |  |  |  | 0.974 | 1.1 | 0.992 | 1 | 1.01 | 1.05 | 1.08 | 1.03 | 0.932 | 0.902 | 0.927 | 0.967 | 0.95
Calu-6 |  |  |  |  |  | 0.854 | 0.912 | 0.517 | 0.891 | 0.761 | 0.973 | 0.895 | 0.734 | 0.816 | 0.723 | 0.897 | 0.833 | 0.791
NCI-H1703 |  |  |  |  |  | 0.401 | 0.334 | 0.21 | 1.15 |  | 1.27 | 0.575 | 0.256 | 0.672 |  | 0.515 | 0.547 | 0.234
